Data: ChEMBL document CHEMBL2331360, “QSAR studies of sulfamate and sulfamide inhibitors targeting human carbonic anhydrase isozymes I, II, IX and XII” (Bioorg Med Chem, 2013)

How the values were obtained:
[1] = target: Carbonic anhydrase 9 (Homo sapiens) (UniProt Q16790)
Description: Inhibition of human carbonic anhydrase-9

[2] = target: Carbonic anhydrase 2 (Homo sapiens) (UniProt P00918)
Description: Inhibition of human carbonic anhydrase-2

log(43000/Ki) [1] | log(43000/Ki) [2] | SMILES
3.63 | 2.47 | NS(=O)(=O)Nc1ccc(NC(=O)NCc2ccccc2)cc1
3.31 | 2.14 | COc1ccc(NC(=O)Nc2ccc(NS(N)(=O)=O)cc2)c(C)c1
3.35 | 2.1 | NS(=O)(=O)Nc1ccc(NC(=O)NCc2ccco2)cc1
3.43 | 2.14 | CCCCOc1ccc(NC(=O)Nc2ccc(NS(N)(=O)=O)cc2)cc1
2.64 | 1.8 | CC(C)c1ccccc1NC(=O)Nc1ccc(NS(N)(=O)=O)cc1
3.03 | 1.99 | COc1ccc(C)cc1NC(=O)Nc1ccc(NS(N)(=O)=O)cc1
3.59 | 2.44 | NS(=O)(=O)Nc1ccc(NC(=O)NCCc2ccccc2)cc1
3.43 | 2.01 | NS(=O)(=O)Nc1ccc(NC(=O)Nc2cccc([N+](=O)[O-])c2)cc1
3.31 | 1.96 | NS(=O)(=O)Oc1ccc(NC(=O)NC23CC4CC(CC(C4)C2)C3)cc1
2.55 | 2.08 | NS(=O)(=O)Nc1ccc(NC(=O)NC2CCCCC2)cc1
3 | 2.13 | NS(=O)(=O)Nc1ccc(NC(=O)Nc2ccc(Cl)cc2)cc1
2.47 | 1.68 | NS(=O)(=O)Nc1ccc(NC(=O)Nc2ccccc2-c2ccccc2)cc1
3.35 | 2.02 | CC(NC(=O)Nc1ccc(NS(N)(=O)=O)cc1)c1cccc2ccccc12 (stereo not drawn)
3.63 | 1.8 | Cc1cc(C)cc(NC(=O)Nc2ccc(NS(N)(=O)=O)cc2)c1
